Patent US20190274948A1, “PREBIOTIC COSMETIC COMPOSITIONS AND USE OF THE PREBIOTIC COSMETIC COMPOSITIONS” (Natura Cosméticos S.A., priority 2016, published 2019)
Where two headings read alike, the source gives them in different places.

How the values were obtained:
IL-6 = IL-6 synthesis in human fibroblast cultures stimulated with PMA/LPS; type: cell-based; conditions: vs PMA/LPS Control
IL-8 = IL-8 synthesis in human fibroblast cultures stimulated with LPS; type: cell-based; conditions: 3.12% (w/v); vs LPS Control
IL-10 = IL-10 synthesis in human fibroblast cultures stimulated with PMA/LPS; type: cell-based; conditions: concentration not given; vs PMA/LPS Control
human fibroblasts = assay: Cell proliferation in human fibroblast cultures; type: cell-based; conditions: for increase of proliferation: vs Control group
Text: As a positive assay control, human fibroblasts were cultivated in a culture medium supplemented with 2% of fetal bovine serum.

[1] = test system: Staphylococcus epidermidis; assay: Prebiotic activity: growth in minimal carbon support medium; type: cell-based; conditions: 0.5%
Method: (§1) When a concentration of 10^4 UFC/ml was reached, the micro-organisms were transferred to a minimal carbon support medium that provided the conditions required for micro-organism replication.
(§2) Each active ingredient in the compositions addressed by this invention was added to the culture medium and cultivated. Should any increased count be noted, the ingredient would be considered as having prebiotic activity.
(§3) The results of each assay were submitted to statistical analysis. The active ingredients used in the prebiotic cosmetic compositions addressed by this invention were tested on different micro-organisms.
(§4) The beneficial micro-organisms assayed were: Staphylococcus epidermidis, Staphylococcus xylosus, Staphylococcus warneri, Staphylococcus captis and Corynebacterium xerosis.

Staphylococcus xylosus = assay: as above; type: cell-based
Method: as §1, §2, §3, §4

GAG = conditions: 72 hours
MMP-1 = MMP-1 synthesis in human fibroblast cultures stimulated with LPS; type: cell-based; conditions: 6.25% (p/v); vs PMA/LPS Control
elastin = assay: Elastin synthesis in human fibroblast cultures; type: cell-based; conditions: 48 hours, vs Baseline Control
Method: Human fibroblast cultures were incubated for 48 hours with the product.

[2] = test system: tested skin-dwelling micro-organisms; assay: Prebiotic activity on panel of beneficial and undesirable skin micro-organisms; type: cell-based; conditions: FIG. 1
Method: as §1, §2, §3, §4
The undesirable micro-organisms assayed were: Staphylococcus aureus, Corynebacterium striatum, Corynebacterium jeikeium, Propioniumbacteria acnes and Candida albicans.

| Compound | drop of IL-6 synthesis (IL-6; 3.12% (w/v)) [%] | drop of IL-6 synthesis (IL-6; 6.25% (w/v)) [%] | reduction of IL-8 synthesis (IL-8) [%] | reductions of IL-10 synthesis (IL-10) | increase of proliferation (human fibroblasts; 1.563% (w/v)) [%] | increase of proliferation (human fibroblasts; 6.250% (w/v)) [%] | Fibroblast proliferation, Increase (human fibroblasts; Table 1) | growth of S. epidermidis [1] | growth of S. xylosus (Staphylococcus xylosus) | lowering of GAG levels (GAG; 3.12% (w/v)) [%] | lowering of GAG levels (GAG; 6.25% (w/v)) [%] | reduction in MMP-1 synthesis (MMP-1) [%] | increase of elastin synthesis (elastin; 1.56% (w/v)) [%] | increase of elastin synthesis (elastin; 3.12% (w/v)) [%] | increase of elastin synthesis (elastin; 6.25% (w/v)) [%] | selectivity for any of the tested skin-dwelling micro-organisms [2] |
| --- | --- | --- | --- | --- | --- | --- | --- | --- | --- | --- | --- | --- | --- | --- | --- | --- |
| OC[C@H]1O[C@H](O[C@H]2O[C@H](CO)[C@@H](O)[C@H](O)[C@H]2O)[C@H](O)[C@@H](O)[C@@H]1O [trehalose] | 19 | 78 | 16 | up to 31% | 33 | 12.25 | of 33% | selectively favored the growth | selectively favored the growth | 23 | 59 | 20 | 75 | 68 | 60 | – |
| inulin | – | – | – | – | – | – | – | – | – | – | – | – | – | – | – | did not present selectivity |
